Laboratory results taken from paper PMC11173529, “Structure–Activity Relationship Studies in a Series of Xanthine Inhibitors of SLACK Potassium Channels” (Molecules, 2024).

Legend:
mouse WT SLACK = target: T1, mouse WT SLACK (Mus musculus, UniProt Q6ZPR4); experiment: Whole-cell APC in CHO cells stably expressing mouse WT SLACK; type: cell-based; conditions: for IC50: APC, CHO cells; for Imax: maximum inhibition at 30 µM standardized to VU0606170 (100%)
T1 construct: expressed in transfected cells; host or cells: CHO
T1 sequence (Q6ZPR4 1-1224): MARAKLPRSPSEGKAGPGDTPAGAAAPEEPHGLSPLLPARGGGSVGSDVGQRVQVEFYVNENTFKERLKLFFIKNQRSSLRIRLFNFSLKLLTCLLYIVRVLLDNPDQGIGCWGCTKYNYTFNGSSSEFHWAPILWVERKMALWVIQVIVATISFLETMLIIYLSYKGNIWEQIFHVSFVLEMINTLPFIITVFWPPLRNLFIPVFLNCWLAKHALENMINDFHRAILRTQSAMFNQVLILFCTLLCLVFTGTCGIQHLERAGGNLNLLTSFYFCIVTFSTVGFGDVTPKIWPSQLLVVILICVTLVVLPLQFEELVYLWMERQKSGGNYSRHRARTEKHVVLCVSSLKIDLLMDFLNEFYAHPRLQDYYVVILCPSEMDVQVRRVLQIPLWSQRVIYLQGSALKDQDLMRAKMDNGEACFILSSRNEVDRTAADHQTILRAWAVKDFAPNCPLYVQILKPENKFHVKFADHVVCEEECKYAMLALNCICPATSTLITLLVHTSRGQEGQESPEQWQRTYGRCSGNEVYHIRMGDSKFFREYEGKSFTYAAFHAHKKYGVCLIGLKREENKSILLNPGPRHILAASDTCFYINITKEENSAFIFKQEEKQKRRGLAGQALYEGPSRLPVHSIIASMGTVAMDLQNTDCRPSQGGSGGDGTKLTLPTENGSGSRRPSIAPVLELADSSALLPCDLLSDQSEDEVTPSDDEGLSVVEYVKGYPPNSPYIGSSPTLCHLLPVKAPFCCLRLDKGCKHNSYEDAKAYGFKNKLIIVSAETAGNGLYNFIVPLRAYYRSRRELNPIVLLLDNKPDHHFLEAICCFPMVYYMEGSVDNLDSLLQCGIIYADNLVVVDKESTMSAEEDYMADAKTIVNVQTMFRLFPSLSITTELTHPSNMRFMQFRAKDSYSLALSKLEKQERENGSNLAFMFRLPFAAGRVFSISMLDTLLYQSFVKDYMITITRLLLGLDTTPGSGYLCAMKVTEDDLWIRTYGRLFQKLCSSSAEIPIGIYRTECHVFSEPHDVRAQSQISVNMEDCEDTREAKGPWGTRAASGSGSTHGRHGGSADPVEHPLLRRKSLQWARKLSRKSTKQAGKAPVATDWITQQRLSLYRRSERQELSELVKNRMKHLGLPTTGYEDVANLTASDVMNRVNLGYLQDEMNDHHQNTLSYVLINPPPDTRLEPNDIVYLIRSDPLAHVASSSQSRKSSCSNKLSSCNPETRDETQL
Text: Development of a useful SLACK inhibitor in vivo tool will require potent activity at the corresponding mouse ortholog as studies in appropriate mouse models will be critical. Thus, we evaluated analogs 32 and 48 in our APC assay using CHO cells stably expressing mouse WT SLACK (Table 6). […] We were also eager to evaluate the same compounds with regard to their ability to inhibit clinically relevant GOF SLACK mutants. Both the C-terminus A934T mutant and transmembrane G288S mutant have been associated with clinical cases of EIMFS [3, 7].
Automated patch-clamp recording was performed with a SyncroPatch 768 PE system (Nanion, Munich, Germany) as previously described. Whole-cell recordings were performed at room temperature. Cells were harvested by first washing with PBS without Mg^2+ or Ca^2+ (Gibco, Billings, MT, USA) to remove cell culture media, followed by dissociation with TryPLE (Gibco, Billings, MT, USA). Cells were then resuspended and diluted to 100,000 cells/mL in external solution. External solution contained 105 mM NaCl, 4 mM KCl, 1 mM MgCl2, 5 mM CaCl2, 10 mM HEPES, and 40 mM N-Methyl-D-glucamine chloride, titrated to pH of 7.4 and osmolarity of 300 mOsm/kg; internal solution contained 70 mM NaCl, 70 mM KF, 10 mM KCl, 5 mM EGTA, and 5 mM HEPES, titrated to a pH of 7.2 and osmolarity of 295 mOsm/kg.
The APC protocol was set as follows: Cells were held at a […] of −80 mV for 100 ms, then a ramp protocol was performed from −100 mV to 80 mV at 0.4 mV/ms, followed by holding the cell at −80 mV for another 100 ms, then steps were performed at −20 mV, 0 mV, +20 mV, +40 mV, and +60 mV for 100 ms of each step. Whole-cell currents were measured at 0 mV and normalized to current after external buffer addition. […] To obtain the concentration-response relationship graphs and IC50 values, we take the median value of the last 7 current amplitude values obtained for each set of data points collected for a given concentration at a particular step.

WT hSLACK = WT hSLACK (Homo sapiens, UniProt Q5JUK3); experiment: Whole-cell automated patch-clamp (APC) in CHO cells stably expressing WT hSLACK; type: cell-based; conditions: range across the three variants, APC; read-out: IC50 values across WT, A934T, and G288S SLACK
Outline: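 CHO-K1 cells stably expressing human SLACK were whole-cell recorded at room temperature with Na/NMDG external solution pH 7.4 and KF-based internal pH 7.2. Concentrations 0.125–30 μM in half-log steps, ≥3 cells each; ramp and step protocol from −80 mV holding, current at 0 mV normalized to post-buffer current, IC50 from median of last 7 amplitudes.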

Chain of WT hSLACK (Q5JUK3 whole entry): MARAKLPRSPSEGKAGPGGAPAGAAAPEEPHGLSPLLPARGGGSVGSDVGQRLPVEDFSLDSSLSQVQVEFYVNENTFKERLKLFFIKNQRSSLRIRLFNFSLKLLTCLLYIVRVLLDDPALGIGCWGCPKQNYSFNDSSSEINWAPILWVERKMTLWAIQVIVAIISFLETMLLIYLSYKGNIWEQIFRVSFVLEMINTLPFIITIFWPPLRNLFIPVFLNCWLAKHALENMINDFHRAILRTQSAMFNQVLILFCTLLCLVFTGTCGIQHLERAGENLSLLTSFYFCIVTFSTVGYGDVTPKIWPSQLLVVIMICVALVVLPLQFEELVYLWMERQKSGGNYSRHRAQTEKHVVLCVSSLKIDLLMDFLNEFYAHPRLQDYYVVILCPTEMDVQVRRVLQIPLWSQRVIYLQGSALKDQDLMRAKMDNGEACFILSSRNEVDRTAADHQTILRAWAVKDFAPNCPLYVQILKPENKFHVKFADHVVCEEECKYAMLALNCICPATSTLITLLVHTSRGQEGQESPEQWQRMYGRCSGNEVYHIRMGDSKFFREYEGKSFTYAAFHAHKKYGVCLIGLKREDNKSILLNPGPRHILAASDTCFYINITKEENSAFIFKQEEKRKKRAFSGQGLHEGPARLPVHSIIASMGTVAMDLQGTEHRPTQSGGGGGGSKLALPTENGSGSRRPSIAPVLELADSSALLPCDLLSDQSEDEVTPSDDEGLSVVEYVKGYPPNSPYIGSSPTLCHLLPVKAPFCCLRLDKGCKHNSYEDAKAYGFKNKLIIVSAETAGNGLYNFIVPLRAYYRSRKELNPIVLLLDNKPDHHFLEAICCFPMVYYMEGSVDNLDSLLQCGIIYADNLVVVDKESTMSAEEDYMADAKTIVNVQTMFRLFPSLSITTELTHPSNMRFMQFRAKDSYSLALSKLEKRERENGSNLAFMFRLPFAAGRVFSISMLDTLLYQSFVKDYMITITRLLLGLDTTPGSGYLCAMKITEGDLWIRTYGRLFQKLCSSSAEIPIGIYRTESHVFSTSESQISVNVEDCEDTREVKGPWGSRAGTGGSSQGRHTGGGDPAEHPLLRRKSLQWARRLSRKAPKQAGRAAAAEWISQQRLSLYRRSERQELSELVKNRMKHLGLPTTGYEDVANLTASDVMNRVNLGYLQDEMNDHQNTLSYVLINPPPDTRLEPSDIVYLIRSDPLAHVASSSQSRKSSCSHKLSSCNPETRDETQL

Row | SMILES | IC50 (mouse WT SLACK) [nM] | Imax (mouse WT SLACK) [%] | IC50 (WT hSLACK) [nM]
1 | CN(Cc1cccc(F)c1)c1nc2c(c(=O)n(Cc3ccccc3)c(=O)n2C)n1C [Analog 48] | 1300 | 100 | 
2 | CCCCN(Cc1ccc(F)cc1)c1nc2c(c(=O)n(Cc3cccc(OC)c3)c(=O)n2C)n1C [Analog 80] |  |  | 590 to 710
3 | COc1cccc(Cn2c(=O)c3c(nc(N(C)Cc4ccccc4)n3C)n(C)c2=O)c1 [Analog 32] | 1400 | 100 | 
